# According to PMC10489644, “In Vitro Evaluation of the Potential for Drug Interactions by Salidroside” (Nutrients, 2023):
# Read-outs that look alike come from different tables or passages of the source.
# What was measured:
# CYP3A4/5 = assay: CYP direct inhibition in human liver microsomes; conditions: pooled human liver microsomes
# CYP1A2 [1] = assay: in vitro
# Protocol: (§1) The sandwich medium was removed, and the hepatocytes were treated with incubation solutions containing salidroside (1, 5, 10, and 30 µM), vehicle (0.1% DMSO), or positive inducers in triplicate for 24 h after the cultures were established. The incubation solution was aspirated and replaced with incubation solution containing the same concentrations of salidroside, vehicle, or positive inducers for an additional 24 h. The total treatment period was 48 h. After the treatment period of 48 h, the incubation solution was aspirated. Hepatocytes were washed twice with pre-warmed HBSS containing 10 mM HEPES (HBSS I) and then the remaining solution was aspirated. Hepatocytes were washed once with pre-warmed HBSS I and incubated with 140 μL of RLT (lysis buffer from RNeasy 96 Kit) supplemented with 1% β-mercaptoethanol. Plates were then stored at −70 °C in a freezer until RNA analysis. Before RNA extraction, the frozen plate was thawed, and cell lysates were transferred to 96-well plates. RNA isolation was performed using a QIAcube RNA extraction system. Reverse transcription was performed to obtain cDNA. Quantification of the selective genes by real-time quantitative polymerase chain reaction (qPCR) was performed with TaqMan universal PCR Master Mix on the Bio-rad CFX384 TouchTM Real-Time PCR System. The relative change in the mRNA level of the selected target genes induced by each test compound was expressed in relation to the vehicle control sample, and fold changes in gene expression were determined by the ΔΔCt method.
# (§2) Enzyme activity (%) = PAR with compound/PAR vehicle × 100.
# CYP1A2 [2] = assay: in vitro; conditions: CYP1A2 mRNA, 50 μM, 48 h; for fold induction at 48 h, 50 µM: human, cryopreserved human hepatocytes (sandwich culture), Mean Fold Induction
# Protocol: as §1, with “The” for “The sandwich medium was removed, and the hepatocytes were treated with incubation solutions containing salidroside (1, 5, 10, and 30 µM), vehicle (0.1% DMSO), or positive inducers in triplicate for 24 h after the cultures were established. The”
# CYP2B6 [3] = assay: CYP induction by enzyme activity in cryopreserved human hepatocytes (Lot# SNP)
# Protocol: as §1, §2
# CYP2B6 [4] = assay: in vitro; conditions: CYP2B6 mRNA, 1000 µM, 48 h; for fold induction at 48 h, 1000 µM: human, Mean Fold Induction
# Protocol: as §1
# OATP1B3 = molecular target: T1, OATP1B3 (Homo sapiens, UniProt Q9NPD5); assay: in vitro; conditions: human
# T1 sequence (Q9NPD5 1-702): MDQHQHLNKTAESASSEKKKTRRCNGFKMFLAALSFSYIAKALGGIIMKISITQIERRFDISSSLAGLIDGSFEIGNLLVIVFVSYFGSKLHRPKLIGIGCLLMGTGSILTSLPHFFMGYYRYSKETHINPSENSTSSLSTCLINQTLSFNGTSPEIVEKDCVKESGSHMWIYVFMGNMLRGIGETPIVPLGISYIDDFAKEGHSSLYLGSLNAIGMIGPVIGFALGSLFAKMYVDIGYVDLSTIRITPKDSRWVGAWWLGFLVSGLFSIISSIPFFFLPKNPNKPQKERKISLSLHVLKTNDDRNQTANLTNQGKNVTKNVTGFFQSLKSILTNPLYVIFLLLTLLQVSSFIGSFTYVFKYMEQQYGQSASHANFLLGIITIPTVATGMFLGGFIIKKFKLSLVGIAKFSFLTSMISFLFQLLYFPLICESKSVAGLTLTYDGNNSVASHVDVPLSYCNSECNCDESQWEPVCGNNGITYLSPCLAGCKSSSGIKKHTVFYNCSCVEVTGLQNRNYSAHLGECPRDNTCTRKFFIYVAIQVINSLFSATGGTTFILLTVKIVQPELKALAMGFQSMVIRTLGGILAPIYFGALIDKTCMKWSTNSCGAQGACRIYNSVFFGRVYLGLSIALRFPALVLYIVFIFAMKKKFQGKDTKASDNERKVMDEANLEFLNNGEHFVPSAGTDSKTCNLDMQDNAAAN
# Protocol: HEK293-OATP1B1 and OATP1B3 cells were diluted to 1 × 10^6 cells/mL with DMEM supplemented with 1% non-essential amino acid (NEAA), 10% fetal bovine serum (FBS), 1% PS solution (100 U/mL penicillin-G and 100 μg/mL streptomycin), and seeded on a 96-well BioCoat™ poly-d-lysine plate at a density of 1 × 10^6 cells/mL. […] Once the cells were anchored on the plate, the cell culture was replaced with DMEM containing 10% FBS and 1% PS solution (100 U/mL penicillin-G and 100 μg/mL streptomycin solution) and cultured one day for the uptake and inhibition studies. The cell culture medium was removed from the 96-well plate, then rinsed twice with 0.1 mL/well of pre-warmed transport buffer. The transporter cells containing pre-incubation solution were pre-incubated at 37 °C for 30 min. Then the pre-incubation solution was removed and replaced with 0.1 mL/well of dosing solution containing a substrate, respectively (blank transporter buffer containing a substrate, transport buffer containing a substrate and PC, and transport buffer containing a substrate and salidroside). Then, the transporter cells were incubated at 37 °C for 2 min. After incubation, all solutions in the cells were discarded and rinsed with 0.10 mL/well of ice-cold transport buffer (4 °C) three times. […] All samples were shaken and centrifuged at 4000 rpm at 4 °C for 15 min and the supernatant was removed for future analysis by LC-MS/MS.
# as §2
# recombinant human MAO-A = molecular target: T2, recombinant human MAO-A (Homo sapiens, UniProt P21397); assay: MAO inhibition, kynuramine oxidation to 4-hydroxyquinoline; format: biochemical; conditions: substrate kynuramine (20 µM); mean of N = 2; read-out: IC50 MAO-A
# T2 sequence (P21397 1-527): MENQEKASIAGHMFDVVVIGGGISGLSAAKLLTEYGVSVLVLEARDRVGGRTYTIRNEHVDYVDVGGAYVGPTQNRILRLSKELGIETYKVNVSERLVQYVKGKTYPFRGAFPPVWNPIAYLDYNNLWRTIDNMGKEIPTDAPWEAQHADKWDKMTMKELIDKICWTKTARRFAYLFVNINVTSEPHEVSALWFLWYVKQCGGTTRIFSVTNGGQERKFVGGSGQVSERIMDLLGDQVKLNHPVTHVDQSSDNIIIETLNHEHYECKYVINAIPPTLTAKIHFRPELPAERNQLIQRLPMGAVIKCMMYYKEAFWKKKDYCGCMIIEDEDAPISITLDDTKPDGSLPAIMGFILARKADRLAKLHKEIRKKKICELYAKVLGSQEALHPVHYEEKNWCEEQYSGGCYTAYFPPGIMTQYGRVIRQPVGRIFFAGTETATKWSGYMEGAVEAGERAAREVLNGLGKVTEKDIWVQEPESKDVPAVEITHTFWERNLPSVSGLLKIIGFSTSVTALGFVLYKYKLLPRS
# Protocol: (§3) A total of 99 µL of substrate working solution was added into 1.1 mL incubation tubes and then 1 µL of the test compound/control working solution or DMSO (vehicle control) was added, mixed well, and pre-incubated at 37 °C for 5 min. MAO-A (0.005 mg/mL) and MAO-B (0.02 mg/mL) were pre-incubated in the working solution at 37 °C for 5 min. A total of 100 µL of pre-incubated MAO-A or MAO-B working solution was added to incubation tubes to start the reaction, mixed well, and incubated at 37 °C for 15 min. […] All samples were centrifuged at 4000 rpm at 4 °C for 15 min, then 100 µL supernatant with 100 µL of water was transferred for LC-MS/MS analysis.
# as §2
# (§4) The oxidation of kynuramine to 4-hydroxyquinoline generated was the in vitro marker reaction of MAO-A and MAO-B enzymes.
# recombinant human MAO-B = molecular target: T3, recombinant human MAO-B (Homo sapiens, UniProt P27338); assay: as above; format: biochemical; conditions: substrate kynuramine (20 µM); mean of N = 2
# T3 construct: purchased Corning
# T3 sequence (P27338 1-520): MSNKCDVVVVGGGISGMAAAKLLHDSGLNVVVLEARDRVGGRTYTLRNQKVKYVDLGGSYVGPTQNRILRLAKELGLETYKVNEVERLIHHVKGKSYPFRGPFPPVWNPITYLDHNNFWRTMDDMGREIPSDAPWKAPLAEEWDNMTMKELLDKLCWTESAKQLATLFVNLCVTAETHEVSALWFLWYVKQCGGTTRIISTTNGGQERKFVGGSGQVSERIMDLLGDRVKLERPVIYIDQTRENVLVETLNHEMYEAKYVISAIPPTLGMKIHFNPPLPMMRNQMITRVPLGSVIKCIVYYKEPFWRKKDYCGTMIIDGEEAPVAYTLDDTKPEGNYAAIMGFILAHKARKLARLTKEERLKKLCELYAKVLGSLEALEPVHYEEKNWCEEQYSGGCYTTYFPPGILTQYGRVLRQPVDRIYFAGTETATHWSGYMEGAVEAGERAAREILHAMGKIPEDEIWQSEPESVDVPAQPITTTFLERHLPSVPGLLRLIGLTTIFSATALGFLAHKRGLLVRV
# Protocol: as §3, §2, §4
# MAO-B = test system: MAO-B; parameters: method as in PMID 19168123; conditions: isolated compound at 10 µM; cited from earlier work
compound,measurement,setting,value
"CC(=O)N1CCN(c2ccc(OCC3COC(Cn4ccnc4)(c4ccc(Cl)cc4Cl)O3)cc2)CC1 (stereo not shown) [Ketoconazole, ketoconazole]",IC50 at 10 min,CYP3A4/5; probe midazolam,27 nM
same,IC50 at 10 min,CYP3A4/5; probe testosterone,18.3 nM
"COc1ccc2[nH]c([S+]([O-])Cc3ncc(C)c(OC)c3C)nc2c1 (stereo not shown) [OME, omeprazole, reference compound]","fold induction at 48 h, 50 µM",CYP1A2 [1],3.55
same,% of Positive Control,"CYP1A2 [1]; CYP1A2 activity, Lot# SNP, 50 µM",100%
same,% Positive Control,CYP1A2 [2]; Lot# 1911442,100%
same,% Positive Control,CYP1A2 [2]; Lot# MWB,100%
same,% Positive Control,CYP1A2 [2]; Lot# RFM,100%
same,"fold induction at 48 h, 50 µM",CYP1A2 [2]; Lot# 1911442,10
same,"fold induction at 48 h, 50 µM",CYP1A2 [2]; Lot# MWB,24
same,"fold induction at 48 h, 50 µM",CYP1A2 [2]; Lot# RFM,19
"CCC1(c2ccccc2)C(=O)NC(=O)NC1=O [PB, phenobarbital, reference compound]",% of Positive Control,"CYP2B6 [3]; CYP2B6 activity, Lot# SNP, 1000 µM",100%
same,"fold induction at 48 h, 1000 µM",CYP2B6 [3]; human,5.69
same,% Positive Control,CYP2B6 [4]; Lot# 1911442,100%
same,% Positive Control,CYP2B6 [4]; Lot# MWB,100%
same,% Positive Control,CYP2B6 [4]; Lot# RFM,100%
same,"fold induction at 48 h, 1000 µM",CYP2B6 [4]; Lot# 1911442,13.6
same,"fold induction at 48 h, 1000 µM",CYP2B6 [4]; Lot# MWB,14.7
same,"fold induction at 48 h, 1000 µM",CYP2B6 [4]; Lot# RFM,8.81
"CO[C@H]1/C=C/O[C@@]2(C)Oc3c(C)c(O)c4c(O)c(c(/C=N/N5CCN(C)CC5)c(O)c4c3C2=O)NC(=O)/C(C)=C\C=C\[C@H](C)[C@H](O)[C@@H](C)[C@@H](O)[C@@H](C)[C@H](OC(C)=O)[C@@H]1C [RIF, rifampicin, reference compound]",IC50 at 2 min,OATP1B3,1540 nM
"Cc1oncc1C(=O)Nc1ccc(C(F)(F)F)cc1 [leflunomide, reference compound]",IC50,recombinant human MAO-A,13.8 µM
same,IC50,recombinant human MAO-B,7.4 µM
"CC(C)=CC[C@H](O)/C(C)=C/CO[C@@H]1O[C@H](CO)[C@@H](O)[C@H](O)[C@H]1O [rosirdin, reference compound]",inhibition of MAO-B,MAO-B,83.8%
